According to patent publication US9499551B2, “Substituted pyrrolo[2,3-b]pyridines for treating cancer or inflammatory diseases” (Confluence Life Sciences, Inc., priority 2014, dated 2016):

target: T1, TAK1-TAB1 (Homo sapiens, UniProt O43318); assay: TAK1-TAB1 binding inhibitory potency (LanthaScreen competitive binding assay, kinase tracer-236); details: 10 nM TAK1-TAB1, 100 nM kinase tracer-236; read-out: TAK1-Tab Inhibition IC50
T1 sequence (O43318 with tags, fused parts or gaps limits assumed): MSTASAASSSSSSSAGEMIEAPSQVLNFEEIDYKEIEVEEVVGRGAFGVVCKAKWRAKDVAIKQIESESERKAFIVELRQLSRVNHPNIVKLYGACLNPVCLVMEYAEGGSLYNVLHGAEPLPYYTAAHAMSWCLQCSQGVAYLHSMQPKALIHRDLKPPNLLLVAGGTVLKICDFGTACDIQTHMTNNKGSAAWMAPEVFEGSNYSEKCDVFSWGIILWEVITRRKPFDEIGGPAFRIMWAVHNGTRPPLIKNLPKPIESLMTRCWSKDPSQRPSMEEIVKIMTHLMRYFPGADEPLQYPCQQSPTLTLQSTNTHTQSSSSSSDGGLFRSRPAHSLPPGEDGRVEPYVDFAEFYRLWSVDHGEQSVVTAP
Source text: TAK1-TAB1 Binding Inhibitory Potency:
The ability of candidate compounds to interact with TAK1-TAB1 is quantitated by a competitive binding assay using the LanthaScreen technology developed by Life Technologies. This assay is based on the binding of a proprietary, Alexa Fluor® 647-labeled, ATP-competitive kinase inhibitor (kinase tracer-236) to the TAK1-TAB1 construct in presence of a europium-conjugated antibody, resulting in a FRET (fluorescence resonance energy transfer) signal. Displacement of the kinase tracer by compound results in a lower emission ratio upon excitation of the europium chelate. Candidate compounds are designed as potential irreversible inhibitors of TAK1-TAB1, capable of ligating to an active site cysteine residue. The time dependent nature of irreversible inhibition is investigated by performing the binding assay with and without a pre-incubation of compound and TAK1-TAB1.
The inhibitory potency of candidate compounds is measured in 20 mM HEPES pH 7.5, 10 mM MgCl2, 0.01% BSA, 0.0005% Tween-20, and 2% DMSO in the presence of 10 nM TAK1-TAB1, 2 nM Eu-anti-his antibody, and 100 nM kinase tracer-236 using a 384-well plate format. Background signal is defined in the absence of TAK1-TAB1 and uninhibited signal is defined in the presence of vehicle (2% DMSO) alone. Compounds were evaluated in an 11 point dose-response ranging from 20 μM to 0.34 nM. The binding assays are performed under two conditions to evaluate time dependence of inhibition. For the pre-incubation assay, TAK1-TAB1 and Eu-anti-his antibody are preincubated with compound or vehicle for two hours prior to the addition of kinase tracer. The non-preincubated assay is run in which TAK1-TAB1 and Eu-anti-his antibody are added to a mixture of compound and kinase tracer. IC50 values of compounds are determined using a 4 parameter logistical fit of emission ratio as a function of the concentration of compound. […]

| IC50 [nM] | SMILES |
| --- | --- |
| ≤ 1000 | CC(=O)c1ccc(-c2cnc3[nH]cc(/C=C/C(N)=O)c3n2)cc1 [Example 307, (E)-3-(2-(4-acetylphenyl)-5H-pyrrolo[2,3-b]pyrazin-7-yl)acrylamide] |
| ≤ 1000 | CN(C)C(=O)c1cnc2[nH]cc(/C=C/C(N)=O)c2c1 [Example 355, (E)-3-(3-amino-3-oxoprop-1-en-1-yl)-N,N-dimethyl-1H-pyrrolo[2,3-b]pyridine-5-carboxamide] |
| ≤ 1000 | NC(=O)/C=C/c1c[nH]c2ncc(-c3cc(Cl)nc(C(F)(F)F)c3)cc12 [Example 350, (E)-3-(5-(2-chloro-6-(trifluoromethyl)pyridin-4-yl)-1H-pyrrolo[2,3-b]pyridin-3-yl)acrylamide] |
| ≤ 1000 | NC(=O)/C=C/c1c[nH]c2ncc(-c3cccc(Oc4ccccc4)c3)cc12 [Example 341, (E)-3-(5-(3-phenoxyphenyl)-1H-pyrrolo[2,3-b]pyridin-3-yl)acrylamide] |
| ≤ 1000 | CCC(=O)c1ccc(-c2cnc3[nH]cc(/C=C/C(N)=O)c3c2)c(C)c1 [Example 313, (E)-3-(5-(2-methyl-4-propionylphenyl)-1H-pyrrolo[2,3-b]pyridin-3-yl)acrylamide] |
| ≤ 1000 | NC(=O)/C=C/c1c[nH]c2ncc(-c3ccc(Oc4ccccc4)cc3)cc12 [Example 342, (E)-3-(5-(4-phenoxyphenyl)-1H-pyrrolo[2,3-b]pyridin-3-yl)acrylamide] |
| ≤ 1000 | NC(=O)/C=C/c1c[nH]c2ncc(C=O)cc12 [Example 356, (E)-3-(5-formyl-1H-pyrrolo[2,3-b]pyridin-3-yl)acrylamide] |
| ≤ 1000 | NC(=O)/C=C/c1c[nH]c2ncc(-c3ccc(N4CCCCC4)nc3)cc12 [Example 363, (E)-3-(5-(6-(piperidin-1-yl)pyridin-3-yl)-1H-pyrrolo [2,3-b]pyridin-3-yl)acrylamide] |
| ≤ 1000 | NC(=O)/C=C/c1c[nH]c2ncc(-c3ccc(OCC4CC4)nc3)cc12 [Example 327, (E)-3-(5-(6-(cyclopropyl-methoxy)pyridin-3-yl)-1H-pyrrolo[2,3-b]pyridin-3-yl)acrylamide] |
| ≤ 1000 | NC(=O)/C=C/c1c[nH]c2ncc(-c3ccc(Oc4ccccc4)nc3)cc12 [Example 345, (E)-3-(5-(6-phenoxypyridin-3-yl)-1H-pyrrolo[2,3-b]pyridin-3-yl)acrylamide] |
| ≤ 1000 | CON(C)C(=O)c1ccc(-c2cnc3[nH]cc(/C=C/C(N)=O)c3c2)cc1 [Example 329, (E)-4-(3-(3-amino-3-oxoprop-1-en-1-yl)-1H-pyrrolo[2,3-b]pyridin-5-yl)-N-methoxy-N-methyl-benzamide] |
| ≤ 1000 | CC(=O)c1cncc(-c2cnc3[nH]cc(/C=C/C(N)=O)c3c2)c1 [Example 304, (E)-3-(5-(5-acetylpyridin-3-yl)-1H-pyrrolo[2,3-b]pyridin-3-yl)acrylamide] |
| ≤ 1000 | CN1CCC(C(=O)c2ccc(-c3cnc4[nH]cc(/C=C/C(N)=O)c4n3)cc2)CC1 [Example 333, (E)-3-(2-(4-(1-methylpiperidine-4-carbonyl)phenyl)-5H-pyrrolo[2,3-b]pyrazin-7-yl)acrylamide] |
| ≤ 1000 | CC(C)(O)c1cc(-c2cnc3[nH]cc(/C=C/C(N)=O)c3c2)ccn1 [Example 317, (E)-3-(5-(2-(2-hydroxypropan-2-yl)pyridin-4-yl)-1H-pyrrolo[2,3-b]pyridin-3-yl)acrylamide] |
| ≤ 1000 | NC(=O)/C=C/c1c[nH]c2ncc(-c3ccc(C(=O)c4nccs4)cc3)cc12 [Example 324, (E)-3-(5-(4-(thiazole-2-carbonyl)phenyl)-1H-pyrrolo[2,3-b]pyridin-3-yl)acrylamide] |
| ≤ 1000 | COc1cc(-c2cnc3[nH]cc(/C=C/C(N)=O)c3c2)cc(C(F)(F)F)c1 [Example 349, (E)-3-(5-(3-methoxy-5-(trifluoromethyl)phenyl)-1H-pyrrolo[2,3-b]pyridin-3-yl)acrylamide] |
| ≤ 1000 | NC(=O)/C=C/c1c[nH]c2ncc(C(=O)c3ccc(F)cc3)cc12 [Example 353, (E)-3-(5-(4-fluorobenzoyl)-1H-pyrrolo[2,3-b]pyridin-3-yl)acrylamide] |
| ≤ 1000 | NC(=O)/C=C/c1c[nH]c2ncc(N3CC(NC(=O)C4CCCC4)C3)cc12 [Example 321, (E)-N-(1-(3-(3-amino-3-oxoprop-1-en-1-yl)-1H-pyrrolo[2,3-b]pyridin-5-yl)azetidin-3-yl) cyclopentane-carboxamide] |

| IC50 [nM] | SMILES |
| --- | --- |
| > 1000 | C/C=C/C(=O)Nc1c[nH]c2ncc(-c3ccccc3)cc12 [Example 235, (E)-N-(5-phenyl-1H-pyrrolo[2,3-b]pyridin-3-yl)but-2-enamide] |
| > 1000 | C=CC(=O)Nc1c[nH]c2ncc(-c3ccccc3)cc12 [Example 236, N-(5-phenyl-1H-pyrrolo[2,3-b]pyridin-3-yl)acrylamide] |
| ≤ 1000 | CC(C)OC(=O)N1CCN(c2cnc3[nH]cc(/C=C/C(N)=O)c3c2)CC1 [Example 301, (E)-isopropyl 4-(3-(3-amino-3-oxoprop-1-en-1-yl)-1H-pyrrolo[2,3-b]pyridin-5-yl)piperazine-1-carboxylate] |
| ≤ 1000 | NC(=O)/C=C/c1c[nH]c2ncc(N3CCN(C(=O)c4ccc(F)cc4F)CC3)cc12 [Example 332, (E)-3-(5-(4-(2,4-difluorobenzoyl)piperazin-1-yl)-1H-pyrrolo[2,3-b]pyridin-3-yl)acrylamide] |
| ≤ 1000 | CC(=O)c1cc(-c2cnc3[nH]cc(/C=C/C(N)=O)c3c2)ccn1 [Example 315, (E)-3-(5-(2-acetylpyridin-4-yl)-1H-pyrrolo[2,3-b]pyridin-3-yl)acrylamide] |
| ≤ 1000 | CC(=O)c1cccc(N2CCN(c3cnc4[nH]cc(/C=C/C(N)=O)c4c3)CC2)c1 [Example 346, (E)-3-(5-(4-(3-acetylphenyl)piperazin-1-yl)-1H-pyrrolo[2,3-b]pyridin-3-yl)acrylamide] |
| ≤ 1000 | CC(C)(O)c1ccc(-c2cnc3[nH]cc(/C=C/C(N)=O)c3n2)cc1 [Example 309, (E)-3-(2-(4-(2-hydroxypropan-2-yl)phenyl)-5H-pyrrolo[2,3-b]pyrazin-7-yl)acrylamide] |
| > 1000 | NC(=O)/C=C/c1c[nH]c2ncc(-c3cccnc3)nc12 [Example 255, (E)-3-(2-(pyridin-3-yl)-5H-pyrrolo[2,3-b]pyrazin-7-yl)acrylamide] |
| > 1000 | C#CC(=O)Nc1c[nH]c2ncc(-c3ccccc3)cc12 [Example 238, N-(5-phenyl-1H-pyrrolo[2,3-b]pyridin-3-yl)propiolamide] |
| ≤ 1000 | NC(=O)/C=C/c1c[nH]c2ncc(-c3ccc(C(O)c4nccs4)cc3)cc12 (centres unmarked) [Example 322, (E)-3-(5-(4-(hydroxy(thiazol-2-yl)methyl)phenyl)-1H-pyrrolo[2,3-b]pyridin-3-yl)acrylamide] |
| ≤ 1000 | CC(C)(O)c1cncc(-c2cnc3[nH]cc(/C=C/C(N)=O)c3c2)c1 [Example 311, (E)-3-(5-(5-(2-hydroxypropan-2-yl)pyridin-3-yl)-1H-pyrrolo[2,3-b]pyridin-3-yl)acrylamide] |
| ≤ 1000 | CCOCCn1cc(-c2cnc3[nH]cc(/C=C/C(N)=O)c3c2)ccc1=O [Example 337, (E)-3-(5-(1-(2-ethoxyethyl)-6-oxo-1,6-dihydropyridin-3-yl)-1H-pyrrolo[2,3-b]pyridin-3-yl)acrylamide] |
| ≤ 1000 | NC(=O)/C=C/c1c[nH]c2ncc(-c3ccc(C(=O)C(F)(F)F)cc3)cc12 [Example 319, (E)-3-(5-(4-(2,2,2-trifluoroacetyl)phenyl)-1H-pyrrolo[2,3-b]pyridin-3-yl)acrylamide] |
| ≤ 1000 | CC(=O)c1ccc(-c2cnc3[nH]cc(/C=C/C(N)=O)c3c2)cc1C [Example 339, (E)-3-(5-(4-acetyl-3-methylphenyl)-1H-pyrrolo[2,3-b]pyridin-3-yl)acrylamide] |
| ≤ 1000 | NC(=O)/C=C/c1c[nH]c2ncc(-c3ccc(C(=O)c4cc(F)cc(F)c4)cc3)cc12 [Example 362, (E)-3-(5-(4-(3,5-difluorobenzoyl)phenyl)-1H-pyrrolo[2,3-b]pyridin-3-yl)acrylamide] |
| ≤ 1000 | NC(=O)/C=C/c1c[nH]c2ncc(-c3cc(C(F)(F)F)cc(C(F)(F)F)c3)nc12 [Example 316, (E)-3-(2-(3,5-bis(trifluoromethyl)phenyl)-5H-pyrrolo[2,3-b]pyrazin-7-yl)acrylamide] |
| ≤ 1000 | CC#CC(=O)Nc1c[nH]c2ncc(-c3ccccc3)cc12 [Example 237, N-(5-phenyl-1H-pyrrolo[2,3-b]pyridin-3-yl)but-2-ynamide] |
